These results are taken from ChEMBL document CHEMBL3808310, “New anti-inflammatory sterols from a gorgonian Pinnigorgia sp” (2016).

SMILES strings stand for the structures.

The test system of assay [1] is RAW264.7. Kind of assay: Antiinflammatory activity in mouse RAW264.7 cells assessed as reduction in LPS-induced COX-2 protein levels at 10 uM preincubated for 10 mins followed by LPS challenge for 16 hrs by Western blot analysis. In kind it is functional. Details: scale not given: the % may be the effect or the level left.
Assay [2] concerns RAW264.7. Kind of assay: Antiinflammatory activity in mouse RAW264.7 cells assessed as reduction in LPS-induced iNOS protein levels at 10 uM preincubated for 10 mins followed by LPS challenge for 16 hrs by Western blot analysis. It counts as functional. Details: scale not given: the % may be the effect or the level left. A general note: Immunoblotting shows a protein as a band on a membrane.

Regarding `C[C@@H]1C[C@H]2[C@@H]3CCC4=CC(=O)C=C[C@]4(C)[C@@]3(F)[C@@H](O)C[C@]2(C)[C@@]1(O)C(=O)CO` [DEXAMETHASONE], the Activity amounted to 1.7% in the assay with RAW264.7 [1] and 9.6% with RAW264.7 [2].
In the case of `CC(=O)OCC[C@]1(C)[C@@H]([C@H](C)CC[C@H](C)C(C)C)CC[C@H]1C1=C[C@H](O)[C@@]2(O)C[C@@H](O)CC[C@]2(C)C1=O`, the Activity in the assay with RAW264.7 [1] is recorded as 54%; in the assay with RAW264.7 [2], 33.2%.
Take `CC(C)[C@@H](C)/C=C/[C@@H](C)[C@H]1CC[C@H]2C3=C(CC[C@]12C)[C@@]1(C)CC[C@H](O)C[C@]12O[C@@H]2[C@@H]3O`: the Activity in the assay with RAW264.7 [1] came to 54%; in the assay on RAW264.7 [2], 41.1%.
